Measured values: patent US10434090B2, “Pharmaceutical composition containing a hypomethylating agent and a histone deacetylase inhibitor” (NIMBLE EPITECH, LLC, priority 2009, dated 2019)

Conditions: reservoir patch, drug at saturation, cladribine in ethanol/DMSO (50/50), entinostat in ethanol/water (2/1), human cadaver epidermis
Description: A feasibility study of transdermal delivery of cladribine and HDAC inhibitors was conducted using the Franz Cell Method. The scope of the ongoing study is to determine the passive transdermal diffusion rate (passive perfusion) of cladribine and multiple HDAC inhibitors for creation of continuous transdermal delivery for induction therapy.
Cladribine was mixed with about 2 percent of a concentration of a thickener comprising a cellulose component to thicken the cladribine composition.
All testing was performed in an incubator at 32 degrees Celsius.
Round pieces of human cadaveric skin were cut out. The patches were placed on top of the skin and mounted in the Franz Cells between the donor compartment and the receiver compartments of the cell. The two compartments were tightened together with a screw-on pinch clamp.
The results of transdermal flux were graphed as a function of time.

lag time before sustained transdermal delivery: 10 h
optimum transdermal flux (32 degrees Celsius, 24 hour): 170 μg/cm^2/day
Compound: Nc1nc(Cl)nc2c1ncn2[C@H]1C[C@H](O)[C@@H](CO)O1 [Cladribine]
